Assay results published in US8445502B2, “Pharmaceutical formulations comprising salts of a protein kinase inhibitor and methods of using same” (Astex Pharmaceuticals, Inc., priority 2007, dated 2013).

Tests used:
[1] = log P by shake-flask octanol/water partitioning; type: physicochemical; settings: aqueous phase citrate buffer pH 2
Method: The log P value for MP470 was determined by the traditional shake-flask method with octanol/water partitioning. Citrate buffer at pH 2 was the aqueous phase. The concentration of the solute in the organic phase was analyzed by HPLC analysis of MP470 with respect to a calibration curve ranging from 0.2 to 200 μg/mL MP470. The majority of MP470 was found in the organic phase. The log P value of MP470 was determined to be 2.3.

[2] = test system: Rad51 in cancer cell lines; experiment: Rad51 Western blot after ionizing radiation; type: cell-based; settings: cells pretreated with MP470
Description: Similar to IR, the sensitivity of cancer cells to platinum-based drugs can be affected by the level of Rad51 protein.

[3] = both, beagle, dog, in vivo, 5 days
Method: In the first study, 2 doses of MP470 were tested, a low dose of 10 mg/kg followed 48 hours later by a dose of 20 mg/kg. Dosage escalation stopped after the 20 mg/kg dose due to observations of adverse clinical signs. After the second dose, the animals were observed everyday for 3 additional days for adverse clinical signs. Over the course of the 5 days of study both dogs gained weight. […] The female dog experienced retching immediately after dosing. Upon administration of the 20 mg/kg dose both the female and male dog experienced unacceptable adverse effects. After three more days of observation both dogs were euthanized and necropsy was performed. The necropsy observations considered abnormal include thrombus observed in the dosing veins of both dogs and possible mild venous congestion in the meningeal vein between brain hemispheres and in the venous sinus on cranial floor of the male animal. From this study the maximally tolerated dose in beagle dogs was determined to be 20 mg/kg.

[4] = Acute intravenous toxicity in rat, second study; type: in vivo; settings: single intravenous dose
Method: In the second IV administration study of MP470 free base, six groups of 6 rats were to be exposed to either vehicle alone or MP470 at 0.625, 1.25, 2.5, 5, or 10 mg/kg. Dosing was administered via a tail vein over approximately 30 minutes. Animals in each group were given a single intravenous dose of the test substance. Animals in the lowest dose group were dosed first, followed by at least a 10 minute period to observe any effects. If no effects were observed or if effects were observed but deemed acceptable the dosing went to the next highest dose using the same progression criteria. Progression was stopped when unacceptable, adverse effects (e.g., severe convulsions or death) occurred or when the highest dose was successfully administered without adverse effects. A control group (formulation vehicle: TV-13) was included for relevant comparison. […] Dosing occurred on Day 0 and termination on Day 4. On Day 4, the animals were sacrificed and subjected to complete, documented, gross necropsy.
Mortality (50%) occurred in the high dose group (10 mg/kg). […] Under the conditions of this study, a maximum tolerated acute dose in the rat for MP470 was determined to be 5 mg/kg. However, a ‘no observable adverse effect level’ could not be determined due to adverse observations apparently associated with vehicle administration.

[5] = test system: OVCAR-3 ovarian cancer cells; experiment: OVCAR-3 ovarian cancer tumor model in nude mice; type: in vivo
Method: MP470 and MP470 HCl were tested against different tumor types in athymic nude mice as summarized below (Table 8). Various formulations and routes were evaluated. HT-29 colorectal cancer cells and SB-CL2 melanoma cells were implanted subcutaneously, while A549 lung cancer cells, MiaPaCa-2 pancreatic cancer cells, TT medullary thyroid cancer cells, and OVCAR-3 ovarian cancer cells were implanted […] in the hind flank of mice. All animals were allowed to develop medium-sized (80-125 mg) tumors, before initiation of dosing. Tumor volume and mouse bodyweight were followed over the course of the study.
OVCAR-3 Ovarian Cancer Model—Forty-two nude mice were implanted subcutaneously with OVCAR-3 ovarian carcinoma, the hydrochloride salt of MP470 (MP470.HCl) was formulated in 100% corn oil and delivered orally. MP470.HCl, cisplatin, and irinotecan were administered to animals alone or in combination. When administered alone, MP470.HCl was given qd at 100 or 200 mg/kg, irinotecan was given q3d at 20 mg/kg, and cisplatin was given q7d at 5 mg/kg. In combination studies, 100 mg/kg MP470.HCl was given qd and combined with 20 mg/kg irinotecan given q3d or 5 mg/kg cisplatin given q7d. One animal in the 200 mg/kg MP470.HCl group died on Day 1, while five animals in the MP470.HCl/cisplatin combination group died (one on Day 5, Day 6, Day 7, Day, 20, and Day 27). Treatment with each individual agent (200 mg/kg MP470.HCl, 46.2 mm3/d; 20 mg/kg irinotecan, 38.53 mm3/d; 5 mg/kg cisplatin, 33.8 mm3/d) reduced the tumor growth rate below that of vehicle-treated mice (78.04 mm3/d). […] In contrast, when MP470.HCl and cisplatin were used in combination, the tumor growth rate was reduced to 10.22 mm3/d. However, the 100 mg/kg dose of MP470.HCl in combination with cisplatin caused enhanced toxicity and most animals in this group died during the 21-day treatment period. The enhanced toxicity was related to the level of the dose used, so a subsequent study was conducted using half the dose, 50 mg/kg/day as described below.

| SMILES | logP [1] | Rad51 protein level after ionizing radiation [2] | maximally tolerated dose [3] [mg/kg] | maximum tolerated acute dose [4] [mg/kg] | animals that died ([5]; 200 mg/kg MP470.HCl group, Day 1) | tumor growth rate ([5]; 200 mg/kg qd oral in corn oil (vehicle 78.04)) [mm3/d] | Outcome: tumor growth ([5]; OVCAR-3, PO 100 or 200 mg/kg, qd × 28, corn oil, hydrochloride) |
| --- | --- | --- | --- | --- | --- | --- | --- |
| S=C(NCc1ccc2c(c1)OCO2)N1CCN(c2ncnc3c2oc2ccccc23)CC1 [MP470, 4-[1]benzofuro[3,2-d]pyrimidin-4-yl-N-(1,3-benzodioxol-5-ylmethyl)piperazine-1-carbothioamide] | 2.3 | Rad51 remained near control levels even after exposure to IR | 20 | 5 | – | – | – |
| Cl.S=C(NCc1ccc2c(c1)OCO2)N1CCN(c2ncnc3c2oc2ccccc23)CC1 [MP470.HCl, 4-[1]benzofuro[3,2-d]pyrimidin-4-yl-N-(1,3-benzodioxol-5-ylmethyl)piperazine-1-carbothioamide hydrochloride] | – | – | – | – | One | 46.2 | Dose dependency |
